From patent publication US8658592B2, “Biologically active peptides and their new uses” (priority 2005, dated 2014)
Marks after values point to notes of the source that are not given here. Ends that are not written are not given here.

Experiments:
[1] = system: Balb/c mice swimming time model; assay: exhaustive swimming time of mice (Example 11); type: in vivo
Experimental: Balb/c male mice were randomized into groups of CMS-001.30 (20 μg/kg/day), CMS-001.31 (20 μg/kg/day), EPO (1000 u/kg/day, three times per week), and saline control. The test substance was dissolved in 0.5 ml saline and applied intraperitoneally once per day for 30 continuous days (EPO was replaced with saline if EPO was not applied). On the tenth day, the mice were trained to swim for 10 min at water temperature of 25±1° C. 30 min after the last test substance administration, the mice were placed to swim in the swimming tank (50 cm×50 cm×40 cm). The depth of water was 30 cm and water temperature 25±1° C. The limbs of the mice were kept moving in the whole process. The swimming (min) time of the mice until death was recorded. Exhaustive swimming time extension rate (ESTR) (%)=(Mean exhaustive swimming time of test group−Mean exhaustive swimming time of saline control)/(Mean exhaustive swimming time of saline control)×100%. 1.4 Statisitics

hepatocarcinoma H22 = assay: survival of mice transplanted with H22 hepatocarcinoma; type: in vivo, BALB/c mice; conditions: for survival of mice transplanted with H22 tumor cells: 80 μg/kg/day, vs saline control P<0.05
Experimental: Healthy BALB/c mice were randomized into groups of CMS-024.04, CMS-025.05, CMS-024.14, and CMS-024.16 (80 μg/kg/day), 5-Fu (20 mg/kg/day, once for every two days), saline (0.2 ml/day), and normal group (without tumor cell inoculation).
Mice inoculated with hepatocarcinomas for 6-8 days were sacrificed. The ascites was collected and the cell concentration adjusted to 5×10^7/ml with D-Hanks' solution. 0.2 ml of this was inoculated intraperitoneally to each BALB/c mouse except for the normal controls.
Administration of test substance was started on the next day after the tumor cell inoculation. The peptides and saline were applied daily and 5-FU once every two days for 60 continuous days or until the death of the mice.
The time of death was recorded and survival time prolongation calculated. Survival time prolongation was calculated as below: Survival prolongation (%)=(Average survival days of test group)−(Average survival days of saline control group)/(Average survival days of saline group)×100%.

[2] = system: human gastric carcinoma BGC-823 xenograft; assay: nude mice-transplanted human gastric carcinoma BGC-823 xenograft; type: in vivo, BALB/c (nu/nu) nude mice; conditions: 30 days
Experimental: Hunan gastric carcinoma cell line BGC-823 at log phase were adjusted to the concentration of 2×10^7/ml and then inoculated subcutaneously to the back of nude mice (0.1 ml per mouse). The inoculated animals were randomized into groups of CMS024-16 (160 μg/kg/day, 320 μg/kg/day, and 640 μg/kg/day, all at 0.2 ml/day), positive control (5-Fu, 20 mg/kg/day at 0.2 ml/day), and negative control (normal saline, 0.2 ml/day). Administration of test substances by intraperitoneal injection was started on the next day after tumor implantation once per day for 30 continuous days. On the next day after the last injection, the tumor masses were collected and their weights determined Inhibition rate=(Mean weight of negative control−Mean weight of test group)/(Mean weight of negative control)×100%

skin allograft = assay: survival of skin allograft in mice (CMS-014); type: in vivo, Balb/c mice (C57BL/6 donors)
Experimental: Half of the mice were male and half were female.
The test substances were dissolved in 0.5 ml saline and intraperitoneally injected for 5 days before the skin transplantation, followed by daily injection until the end point of rejection of the skin graft.
A patch of hair at the back of Balb/c mice was removed by 8% Na2S solution. On the next day, a wound bed of approximately 1 cm^2 was produced by removing the skin surgically, and then a piece of full-thickness tail skin of 1 cm^2 from sex-matched donor C57BL/6J mice was placed onto the wound bed. The surgical site was covered and protected with a layer of paraffin gauze, and a covering plaster was applied. The plaster was removed 6 days after transplantation^[1], and the recipient mice were monitored daily for the viability of the allograft. The end point of rejection was taken as only less than 10% of the allograft remained viable^[2].

[3] = Table 6.1 experiment, 20 mg/kg once every two days
[4] = Table 6.2 experiment, 20 mg/kg once every two days
[5] = 1000 u/kg/day, 3 times per week
[6] = Table 6.2 experiment, 80 μg/kg daily i.p.
[7] = Table 6.1 experiment, 80 μg/kg daily i.p.

## PTTKTY [CMS-001.30]
[1]; 20 μg/kg/day i.p., 30 days
  ESTR (exhaustive swimming time extension rate): 88.3* %

## O=c1[nH]cc(F)c(=O)[nH]1 [5-Fu, 5-fluorouracil, reference compound]
Hepatocarcinoma H22; [3]
  Survival Prolongation: 84.5* %
  Survival time (first column): 30.0 ± 2.0 days
  Survival time (second column): 32.5 ± 6.3 days
Hepatocarcinoma H22; [4]
  Survival Prolongation: 33.3%
  Survival time (first column): 18.0 ± 0.4 days
  Survival time (second column): 24.5 ± 11.1 days
[2]; 20 mg/Kg/day i.p.
  Inhibition rate: 40.8* %
  Tumor weight: 1.70 ± 0.70 g

## Erythropoietin [EPO, reference compound]
[1]; [5]
  ESTR (exhaustive swimming time extension rate): 31.3* %
  Swimming time: 126.1 ± 20.4 min

## Leu-Tyr-Ser (LYS; Synthetically prepared peptide sequence) [CMS-024.16]
Hepatocarcinoma H22
  survival of mice transplanted with H22 tumor cells: prolong the survival
Hepatocarcinoma H22; [6]
  Survival Prolongation: 57.8%
  Survival time (first column): 18.0 ± 1.0 days
  Survival time (second column): 29.0 ± 7.9 days
[2]; 160 μg/Kg/day i.p.
  Inhibition rate: 54.0* %
  Tumor weight: 1.32 ± 0.68 g
[2]; 320 μg/Kg/day i.p.
  Inhibition rate: 44.7* %
  Tumor weight: 1.59 ± 1.017 g
[2]; 640 μg/Kg/day i.p.
  Inhibition rate: 54.4* %
  Tumor weight: 1.31 ± 0.77 g

## Tyr-Thr-Val (YTV; Synthetically prepared peptide sequence) [CMS-024.05]
Hepatocarcinoma H22
  survival of mice transplanted with H22 tumor cells: prolong the survival
Hepatocarcinoma H22; [7]
  Survival Prolongation: 10.4* %
  Survival time (first column): 19.0 ± 1.0 days
  Survival time (second column): 19.3 ± 2.4 days

## AAHHPDDFNPSV [CMS-014]
Skin allograft; 125 μg/kg/day i.p.
  MST (mean survival time of skin allograft): 10.0 ± 0.5 days
Skin allograft; 250 μg/kg/day i.p.
  MST (mean survival time of skin allograft): 9.8 ± 0.5 days
Skin allograft; 500 μg/kg/day i.p.
  MST (mean survival time of skin allograft): 9.8 ± 0.4 days
